The results in this text go back to patent US10947215B2, “Heteroaryl compounds and their use as therapeutic drugs” (Dong-A Socio Holdings Co., Ltd., priority 2015, dated 2021).

Experiment [1] addresses human c-MER catalytic domain (Homo sapiens (Human), UniProt Q12866). Kind of experiment: LanthaScreen TR-FRET biochemical kinase assay (c-MER). The conditions noted are these: read-out: Mer TK inhibition (IC50), 10 uM ATP.
Experiment [2] relates to Ba/F3-CDM cells (Ba/F3 transfected with CD8-MerTK). Kind of experiment: In cell MER kinase assay, Ba/F3-CDM cell proliferation without IL-3 (Celltiter-Glo, GI50). The class given is cell-based, murine. The conditions noted are these: 48 hours, read-out: Cell growth inhibition (GI50). The gist of the method:
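Ba/F3 cells expressing CD8-MerTK were grown without IL-3, so that proliferation depends on MerTK. Cells were pre-incubated 24 h, then exposed to compound for 48 h. Viability was read by CellTiter-Glo, with IL-3-supplemented Ba/F3 run in parallel as a nonspecific cytotoxicity control, and GI50 was derived.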

Broadly, the IC50 is the concentration at which inhibition is half-maximal. By GI50 is commonly meant the concentration giving 50% growth inhibition.

Sequence of human c-MER catalytic domain (Q12866 587-858): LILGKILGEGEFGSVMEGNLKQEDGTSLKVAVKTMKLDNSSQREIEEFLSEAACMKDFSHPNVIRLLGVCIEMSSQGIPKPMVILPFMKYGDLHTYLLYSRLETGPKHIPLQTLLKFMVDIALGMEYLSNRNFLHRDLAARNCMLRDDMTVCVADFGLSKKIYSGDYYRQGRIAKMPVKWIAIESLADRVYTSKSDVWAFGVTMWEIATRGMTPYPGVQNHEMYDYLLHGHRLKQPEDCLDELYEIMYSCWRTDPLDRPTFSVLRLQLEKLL

Turning to `C[C@@H]1CN(Cc2ccc(-c3ccc(CO[C@H]4CCC[C@@H]4NC(=O)c4cc(-c5cnn(C)c5)cnc4N)cc3)cc2)C[C@H](C)N1C` [Example 190, 2-amino-5-(1-methyl-1H-pyrazol-4-yl)-N-((1S,2S)-2-((4′-((cis-3,4,5-trimethylpiperazin-1-yl)methyl)-[1,1′-biphenyl]-4-yl)methoxy)cyclopentyl)-nicotinamide], in experiment [1], the IC50 was less than 10 nM. Also, the GI50 in experiment [2] is less than 100 nM.

`C[C@@H]1CN(C)[C@@H](C)CN1Cc1ccc(-c2ccc(CO[C@H]3CCC[C@@H]3NC(=O)c3cc(-c4cnn(C)c4)cnc3N)cc2)cc1` [Example 192, 2-amino-5-(1-methyl-1H-pyrazol-4-yl)-N-((1S,2S)-2-((4′-(((2R,5S)-2,4,5-trimethylpiperazin-1-yl)methyl)-[1,1′-biphenyl]-4-yl)methoxy)cyclopentyl)nicotinamide]: the 50% inhibitory concentration (IC50) in experiment [1] is less than 10 nM. In experiment [2], the GI50 is less than 100 nM.

Regarding `CCc1cc(CO[C@H]2CNC[C@@H]2NC(=O)c2cc(-c3ccc(CO)cc3)cnc2N)ccc1C` [Example 389, 2-amino-N-((3S,4S)-4-((3-ethyl-4-methylbenzyl)oxy)pyrrolidin-3-yl)-5-(4-(hydroxymethyl)phenyl)nicotinamide], the IC50 in experiment [1] is less than 10 nM. In experiment [2], the GI50 lay within 100 to 500 nM.

Regarding `CN1CCN(Cc2ccc(-c3ccc(CO[C@H]4CN(C)C[C@@H]4NC(=O)c4cc(-c5cnn(C)c5)cnc4N)cc3)cc2C(F)(F)F)CC1` [Example 437, 2-amino-5-(1-methyl-1H-pyrazol-4-yl)-N-((3S,4S)-1-methyl-4-((4′-((4-methylpiperazin-1-yl)methyl)-3′-(trifluoromethyl)-[1,1′-biphenyl]-4-yl)-methoxy)pyrrolidin-3-yl)nicotinamide], in experiment [2], the GI50 was less than 100 nM.

`Cn1cc(-c2cnc(N)c(C(=O)N[C@H]3CNC[C@@H]3OCc3ccc(-c4ccc(C(C)(C)N5CCN(CCO)CC5)cc4)cc3)c2)cn1` [Example 440]: the GI50 in experiment [2] was greater than 1000 nM.

Regarding `CC(c1ccc(-c2ccc(CO[C@H]3CNC[C@@H]3NC(=O)c3cc(-c4cnn(C)c4)cnc3N)cc2)cc1)N1CCN(CCO)CC1` (stereo partly drawn) [Example 442, 2-amino-N-((3S,4S)-4-((4′-(1-(4-(2-hydroxyethyl)piperazin-1-yl)ethyl)-[1,1′-biphenyl]-4-yl)methoxy)pyrrolidin-3-yl)-5-(1-methyl-1H-pyrazol-4-yl)nicotinamide], the 50% growth inhibitory concentration (GI50) in experiment [2] is greater than 1000 nM.

For the compound `CC(c1ccc(-c2ccc(CO[C@H]3CN(C)C[C@@H]3NC(=O)c3cc(-c4cnn(C)c4)cnc3N)cc2)cc1)N1CCN(CCO)CC1` (stereo partly drawn) [Example 443, 2-amino-N-((3S,4S)-4-((4′-(1-(4-(2-hydroxyethyl)piperazin-1-yl)ethyl)-[1,1′-biphenyl]-4-yl)methoxy)-1-methylpyrrolidin-3-yl)-5-(1-methyl-1H-pyrazol-4-yl)nicotinamide], the GI50 in experiment [2] was less than 100 nM.

Take `Cn1cc(-c2cnc(N)c(C(=O)N[C@H]3CNC[C@@H]3OCc3ccc(-c4ccc(CN5CCN(CCO)CC5)c(C(F)(F)F)c4)cc3)c2)cn1` [Example 444, 2-amino-N-((3S,4S)-4-((4′-((4-(2-hydroxyethyl)piperazin-1-vi)-methyl)-3′-(trifluoromethyl)-[1,1′-biphenyl]-4-yl)methoxy)pyrrolidin-3-yl)-5-(1-methyl-1H-pyrazol-4-yl)nicotinamide]: the GI50 in experiment [2] is greater than 1000 nM.

Regarding `CN1C[C@H](NC(=O)c2cc(-c3cnn(C)c3)cnc2N)[C@@H](OCc2ccc(-c3ccc(CN4CCN(CCO)CC4)c(C(F)(F)F)c3)cc2)C1` [Example 445, 2-amino-N-((3S,4S)-4-((4′-((4-(2-hydroxyethyl)piperazin-1-vi)-methyl)-3′-(trifluoromethyl)-[1,1′-biphenyl]-4-yl)methoxy)-1-methylpyrrolidin-3-yl)-5-(1-methyl-1H-pyrazol-4-yl)nicotinamide], the GI50 in experiment [2] was less than 100 nM.

In the case of `Cn1cc(-c2cnc(N)c(C(=O)N[C@H]3CNC[C@@H]3OCc3ccc(-c4ccc(CN5CCN(CCO)CC5)cc4)cc3)c2)cn1` [Example 446, 2-amino-N-((3S,4S)-4-((4′-((4-(2-hydroxyethyl)piperazin-1-yl)-methyl)-[1,1′-biphenyl]-4-yl)methoxy)pyrrolidin-3-yl)-5-(1-methyl-1H-pyrazol-4-yl)-nicotinamide], the GI50 in experiment [2] is greater than 1000 nM.

In the case of `CN1C[C@H](NC(=O)c2cc(-c3cnn(C)c3)cnc2N)[C@@H](OCc2ccc(-c3ccc(CN4CCN(CCO)CC4)cc3)cc2)C1` [Example 447, 2-amino-N-((3S,4S)-4-((4′-((4-(2-hydroxyethyl)piperazin-1-yl)-methyl)-[1,1′-biphenyl]-4-yl)methoxy)-1-methylpyrrolidin-3-yl)-5-(1-methyl-1H-pyrazol-4-yl)nicotinamide], the 50% growth inhibitory concentration (GI50) in experiment [2] was less than 100 nM.

`CN1CCN(Cc2ccc(-c3ccc(CO[C@H]4COC[C@@H]4NC(=O)c4cc(-c5cnn(C)c5)cnc4N)cc3)cc2)CC1` [Example 448, 2-amino-5-(1-methyl-1H-pyrazol-4-yl)-N-((3S,4R)-4-((4′-((4-methylpiperazin-1-yl)methyl)-[1,1′-biphenyl]-4-yl)methoxy)tetrahydrofuran-3-yl)-nicotinamide]: the concentration for 50% growth inhibition (GI50) in experiment [2] is less than 100 nM.

Take `CN1CCN(Cc2ccc(-c3ccc(CO[C@H]4COC[C@@H]4NC(=O)c4cc(-c5cnn(C)c5)cnc4N)cc3)cc2C(F)(F)F)CC1` [Example 449, 2-amino-5-(1-methyl-1H-pyrazol-4-yl)-N-((3S,4R)-4-((4′-((4-methylpiperazin-1-yl)methyl)-3′-(trifluoromethyl)-[1,1′-biphenyl]-4-yl)methoxy)-tetrahydrofuran-3-yl)nicotinamide]: the 50% growth inhibitory concentration (GI50) in experiment [2] was less than 100 nM.

`CN1CCN(C(C)(C)c2ccc(-c3ccc(CO[C@H]4COC[C@@H]4NC(=O)c4cc(-c5cnn(C)c5)cnc4N)cc3)cc2)CC1` [Example 450, 2-amino-5-(1-methyl-1H-pyrazol-4-yl)-N-((3S,4R)-4-((4′-(2-(4-methylpiperazin-1-yl)propan-2-yl)-[1,1′-biphenyl]-4-yl)methoxy)tetrahydrofuran-3-yl)nicotinamide]: the concentration for 50% growth inhibition (GI50) in experiment [2] is less than 100 nM.

On to `Cn1cc(-c2cnc(N)c(C(=O)N[C@H]3COC[C@@H]3OCc3ccc(-c4ccc(CN5CCN(CCO)CC5)cc4)cc3)c2)cn1` [Example 451, 2-amino-N-((3S,4R)-4-((4′-((4-(2-hydroxyethyl)piperazin-1-yl)methyl)-[1,1′-biphenyl]-4-yl)methoxy)tetrahydrofuran-3-yl)-5-(1-methyl-1H-pyrazol-4-yl)nicotinamide], for which, in experiment [2], the concentration for 50% growth inhibition (GI50) was less than 100 nM.

`Cn1cc(-c2cnc(N)c(C(=O)N[C@H]3COC[C@@H]3OCc3ccc(-c4ccc(CN5CCN(CCO)CC5)c(C(F)(F)F)c4)cc3)c2)cn1` [Example 452]: the 50% growth inhibitory concentration (GI50) in experiment [2] is less than 100 nM.
